Results: patent publication US8847018B2, “Plants tolerant to HPPD inhibitor herbicides” (Bayer CropScience AG, priority 2009, dated 2014)
Several values for one entry are separate records, joined by “and”; a condition that tells them apart may be missing. Identical values can stand only once.

Tests used:
[1] = test system: rice shoots containing FMP23e; assay: Bleaching of rice shoots on MS/2 with tembotrione; type: cell-based; details: 2 weeks
Protocol: (§1) Rice transformation is achieved using methods well known in the art. Briefly, the Agrobacterium tumefaciens mediated transformation of rice was performed using immature embryos, from the restorer line 6G4317. Briefly, panicles from donor plants were harvested 8-12 days after pollination. The lemma of the immature seed was removed. Seeds were thereafter sterilized using a NaOCl based solution and Tween. The seeds were preinduced with […]. Agrobacterium tumefaciens cells are then co-cultivated with the preinduced seeds in presence of acetosyringone for 4 days at 24° C. in the dark. Thereafter, coleoptile from embryos are removed and washed, then put on a media supplemented with phosphinothricin for 3 weeks at 28° C. under a photoperiod rhythm of 16 hours. Then the growing calli were cut off from the embryos, and transferred to fresh media containing triacillin, phosphinothricin, L-proline and copper (II) sulfate.
(§2) For each callusline and per Tembotrione concentration, 3 shoots, and randomly isolated from different callus pieces, were transferred to MS/2 with Tembotrione. As a general rule, transfer of the shoots from regeneration medium to MS/2 occurred 9 weeks after calli had been put on regeneration medium.
(§3) Cultures were incubated at 26.5° C. (16 hrs. photoperiod) and evaluation of symptoms occurred 2 weeks later.
(§4) New developing leaves of the shoots transferred have been scored on the basis of bleaching and categorized in 3 groups:
(§5) Within the category ‘intermediate bleaching’ a distinction has been made between shoots having new leaves showing only very little bleaching symptoms and thus tending to green leaves, and shoots with new leaves almost completely bleached.

[2] = test system: rice shoots containing FMP22e; assay: Bleaching of rice shoots on MS/2 with tembotrione; type: cell-based; details: 2 weeks
Protocol: as §1, §2, §3, §4, §5

[3] = biological target: T1, Arabidopsis thaliana HPPD SEQ ID No. 10 (Arabidopsis thaliana, UniProt P93836); assay: HPLC assay of HPPD in vitro kinetic properties
T1 sequence (P93836 with tags, fused parts or gaps): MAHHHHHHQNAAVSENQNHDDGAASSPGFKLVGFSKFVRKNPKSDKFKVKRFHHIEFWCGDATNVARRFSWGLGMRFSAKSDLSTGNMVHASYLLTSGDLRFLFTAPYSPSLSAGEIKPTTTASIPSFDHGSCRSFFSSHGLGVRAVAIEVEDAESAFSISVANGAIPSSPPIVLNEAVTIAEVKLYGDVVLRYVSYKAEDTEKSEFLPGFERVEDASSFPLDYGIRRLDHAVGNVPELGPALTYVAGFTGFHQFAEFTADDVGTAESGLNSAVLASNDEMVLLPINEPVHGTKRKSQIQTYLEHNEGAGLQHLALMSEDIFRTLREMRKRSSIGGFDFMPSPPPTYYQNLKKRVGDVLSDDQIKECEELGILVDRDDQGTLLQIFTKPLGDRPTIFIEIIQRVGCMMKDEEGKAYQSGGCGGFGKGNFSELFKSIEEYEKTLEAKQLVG
Protocol: All assays were started by the addition of HPPD enzyme to the assay mixture and stopped at a series of times between 0 and 240 s by addition of 200 μl of the reaction mixture to reaction assay tubes containing 20 μl 10% perchloric acid. Precipitated protein was pelleted by a 5 minute centrifugation at 10,000 g. […] For Km and Vmax value determinations the initial rates of the HPPD reaction at different substrate concentrations were determined from plots of HGA formed versus time and fitted to the Michaelis-Menten equation for unireactant enzymes using the ID Business Solutions Ltd. (idbs.com) XLfit software suite.

[4] = test system: Rhodococcus HPPD SEQ ID No. 5 (FMP22e); assay: biochemical; type: biochemical, Rhodococcus sp. (strain RHA1), isolate ro03041; details: SEQ ID No. 5
[5] = test system: tobacco plants containing FMP23e (HPPD FMP23); assay: Glasshouse trial, herbicidal damage on T1 tobacco; type: in vivo, Nicotiana tabacum; details: 7 DAT, 100 g AI/ha spray; FMP23e line 188, single T1 plants
Protocol: T0 Tobacco plants containing either the gene from Arabidopsis coding for HPPD or the gene FMP22e from Rhodococcus sp. (strain RHA1), isolate ro03041 coding for FMP22 HPPD, or the gene FMP23e from Rhodococcus sp. (strain RHA1), isolate ro02040 mentioned above (Example 3), were transferred to the glasshouse (28/20° C.), to develop further and produce seeds. Those seeds were harvested and put on soil (ED73 mixed with sand and osmocote Pro) to germinate in the glasshouse (28/20° C.). Three to four weeks later, plantlets were transferred to single pots containing the soil mentioned above. Two weeks later, plants of a size 4-6 cm diameter were sprayed with either • tembotrione at 100 gAl/ha prepared from a WP20 (wettable powder 20%) formulation supplemented with ammonium sulfate and methyl ester raps oil, or • isoxaflutole at 100 gAl/ha prepared from a WP20 formulation supplemented with ammonium sulfate and methyl ester raps oil, or • bicyclopyrone at 100 gAl/ha prepared from a WP20 formulation supplemented with ammonium sulfate and methyl ester raps oil, or • “blind formulation” made from a WP20 formulation without active ingredient (Al) supplemented with ammonium sulfate and methyl ester raps oil, and were then transferred to a growth chamber with adequate light conditions (20000 Lux).

In the case of `CS(=O)(=O)c1ccc(C(=O)C2C(=O)CCCC2=O)c(Cl)c1COCC(F)(F)F` [Tembotrione, 2-[2-chloro-4-(methylsulfonyl)-3-[(2,2,2,-tri-fluoroethoxy)methyl]benzoyl]-1,3-cyclo-hexanedione], the “N° of shoots completely bleached” value ([1]; 1 μM) is reported as 14, the “N° of shoots with intermediate bleaching” value ([1]; 1 μM) is reported as 5 and the “N° of shoots without bleaching” value ([1]; 1 μM) is reported as 39. For the same compound, the “N° of shoots completely bleached” value ([1]; 5 μM) was 25, the “N° of shoots with intermediate bleaching” value ([1]; 5 μM) was 20 and the “N° of shoots completely bleached” value ([2]; 1 μM) was 14. The “N° of shoots with intermediate bleaching” value ([2]; 1 μM) was 9, the “N° of shoots without bleaching” value ([2]; 1 μM) was 35 and the “N° of shoots completely bleached” value ([2]; 5 μM) was 16. For the same compound, the “N° of shoots with intermediate bleaching” value ([2]; 5 μM) was 38, the “N° of shoots without bleaching” value ([2]; 5 μM) was 6 and the Ki [3] was 15 nM. For the same compound, the pI50 ([4]; 2 mM HPP, 3 minutes incubation) was 5.3, the “percentage of inhibition compared to activity in absence of the inhibitor” value ([4]; 5.0 × 10^−6 M inhibitor) was 36% and the “% injury” value [5] was 0% and 5%.
